# In US20110189291A1, “DENDRIMER HYDROGELS” (priority 2009, published 2011):
# Several values for one entry are separate records, joined by “and”; a condition that tells them apart may be missing. Identical values can stand only once. Counter-ions that a name gives are not always drawn. Like-named read-outs stand apart in the source and are kept apart here.
# Experiments:
# [1] = Ex vivo transcorneal transport
# Experimental: 1. Corneas were isolated from freshly excised bovine eyes and mounted in Using chambers. 2. […] Note: Both drugs were present together in this hydrogel/solution cocktail. 3. […] 4. 200 μl of sample was collected from the receiver side with fresh assay buffer replacement at the end of 1, 2, 3, 4 and 6 h. 5. […] 6. Samples were stored at −80° C. prior to analysis. 7. Cumulative percent transport was normalized to the amount of drug present at zero time point.
# [2] = physchem; conditions: for solubility: thermodynamic from solid, saturated concentration (solubility); for solubility / saturated concentration (solubility): room temperature
# Experimental: Following overnight equilibration at room temperature, the solution was vortexed again and then centrifuged at 10,000 rpm for 5 min to remove undissolved drug. The sample solution was diluted by a factor of 100 in PBS, and absorbance value (Y) at 248 nm was recorded on a GENESYS™ 6 UV-Visual spectrophotometer. Thus, drug concentration (C in μg/mL) was determined using the following regression equation: C=(Y−0.005)/0.063. […] Measurements were done in duplicate.
# Following overnight equilibration at room temperature, the solution was vortexed again and then centrifuged to remove undissolved drug. The supernatant was collected, diluted by a factor of 100 in PBS, and its absorbance value (Y) at 248 nm was recorded on a GENESYS™ 6 UV-Visual spectrophotometer. Thus, drug concentration [C] (μg/mL) was determined using the following regression equation: C=(Y−0.005)/0.063 [2]. […] Measurements were done in duplicate.
# [3] = In vitro drug release by dialysis in pH 7.4 PBS at 37° C.; type: physicochemical; conditions: for time for complete release (in words): from eye drop formulations
# Experimental: The control eye drop formulation was PBS containing 0.1% brimondien and 0.5% timiolol maleate. […] The dissolution medium was maintained at 37±2° C. and constantly agitated in a shaker incubator. 4. Dissolution medium was completely replaced at all time intervals with 1.5 ml of fresh dissolution medium maintained at 37±2° C. 5. The amount of drug released in the dissolution medium at each time interval was analyzed by LC-MS.
# [4] = system: Human corneal epithelial cells (HCET); type: cell-based; conditions: 1 h
# Experimental: The uptake of brimonidine and timolol maleate by HCET cells after entrapment of the drugs in a hydrogel was studied. As a control, eye drop formulation of both the drugs in phosphate buffer saline was used. • 1. Human corneal epithelial cells (HCET, passage #40) were seeded in a 48 well plate (BD, Falcon®, Multiwell™ tissue culture plates) at a seeding density of 5000 cells/well. • 2. The cells were allowed to adhere to the surface of the well overnight. • 3. […] The cells were washed twice with 200 μl cold PBS pH 7.4 and twice with 200 μl cold acidic PBS pH 5.0. All the washes were collected. Finally, 200 μl of 1% w/v Triton X 100 solution was transferred to each well and allowed to stand for 30 minutes. • 6. The cells were scraped (dislodged) using a pipette tip and suspension of cells in 1% Triton X 100 solution was collected. • 7. Samples were processed as follows: 100 μl of sample collected as described above was diluted to 500 μl using acetonitrile. The samples were vortexed for 10 minutes and centrifuged at 10,000 rpm for 5 minutes, and then analyzed using LC-MS as described in Table 4. Dorzolamide was used as an internal standard
# [5] = Ex vivo bovine eye tissue uptake after topical dosing; type: in vitro ADME
# Experimental: 1. […] Eyes were kept in the muffin plate and partially dipped into PBS pH 7.4. 3. 50 μl of hydrogel formulation or solution was instilled gently as an eye drop onto the corneal surface. 4. After every 15 minutes, 50 μl of fresh PBS pH 7.4 was instilled as an eye drop to prevent corneal drying. 5. At the end of 1 h, eyes were dissected and the following tissues were collected: corneal epithelium, stroma, endothelium and aqueous humor. Tissues were stored at −80° C. before sample processing and analysis. 1. Tissues weights were recorded and 0.49 ml of 2% NaOH solution was added to these tissues along with 10 μl of IS of 12.5 μg/ml. 2. Samples were homogenized, sonicated, and extracted with organic solvent. Final reconstitution was done in 0.5 ml of acetonitrile-water mixture (75:25).
SMILES,duration of sustained release ([3]; from DH formulation) [h],time for complete release (in words) [3],Mean % drug content in first wash with acidic buffer [4] [%],Mean % drug content in second wash with acidic buffer [4] [%],Mean % drug content in supernatant after completion of study [4] [%],Mean % drug content in first wash with acidic buffer ([4]; pH 7.4) [%],Mean % drug content in second wash with acidic buffer ([4]; pH 7.4) [%],Mean % drug content in supernatant after completion of study ([4]; pH 7.4) [%],other results
Brc1c(NC2=NCCN2)ccc2nccnc12 [brimonidine],~72,within one hour and a half,0.00,0.00,0.00,93.13,2.92,0.06,"corneal transport, hydrogel formulation versus solution (in words) ([1]; at the end of 6 h): slightly higher transport; cumulative percentage transport across the cornea ([1]; from the DH formulation, at 6 h): 1.06±0.18%; solubility ([2]; 8.1% (w/v) G3.0-PEG-dA in PBS, aqueous with cosolvent or surfactant or cyclodextrin, in the presence of G3.0-PEG-dA (8.1% w/v in PBS; DH formulation)): 0.696 mg/mL; solubility increase ([2]; G3.0-PEG-dA / DH formulation versus plain PBS): 77.5% and 77.6%; solubility ([2]; PBS, aqueous buffer, plain PBS): 0.392 mg/mL; saturated concentration (solubility) ([2]; in the presence of G3.0-PEG-dA (8.1% w/v in PBS; DH formulation)): 0.696 mg/mL; saturated concentration (solubility) ([2]; plain PBS): 0.392 mg/mL; duration of sustained release ([3]; from hydrogel Formulation C (0.1% brimonidine, 0.5% timolol maleate), 37° C.): 72 h; Mean % drug content in cell lysate after completion of study (uptake) [4]: 76.17%; uptake with DH formulation higher than with eye drop formulation [4]: 19 fold; level in aqueous humor, hydrogel versus eye drop formulation (in words) ([5]; 1 h after topical instillation): significant difference in drug level was not observed"
CC(C)(C)NC[C@H](O)COc1nsnc1N1CCOCC1 [timolol maleate],~56,within one hour and a half,0.0,14.9,0.1,0.0,34.7,0.2,"corneal transport, hydrogel formulation versus solution (in words) [1]: higher from hydrogel; cumulative percentage transport across the cornea ([1]; bovine, 6 h, pH 7): 13.54±1.83%; level from hydrogel formulation more than from eye drop solution ([5]; bovine, 1 h, 0.5 %, pH 7.4): 40%"
